≈ marks a conversion by molar mass, not a printed value.
How the values were obtained:
human lung cancer Ma44 = test: Evaluation of in vivo antitumor efficacy, tumor growth inhibition; set-up: species or system mouse; conditions: Ma44 in Balb/c nude mice; 30 mg/kg orally daily for 14 days; P<0.01
Description: (§1) Test Example 3 Evaluation of in Vivo Antitumor Efficacy
(§2) Murine colon cancer Colon 26, human lung cancer RERF-LC-AI and human lung cancer Ma44 were used. Murine- and human-derived tumor cells were maintained by serial transplantation in Balb/c and Balb/c nude mice, respectively. After tumor implantation, compound A-42 suspended in 5% methylcellulose solution were orally administered daily for 14 days. Tumor size (short diameter and long diameter) was scored throughout the experiment and tumor volume was calculated. Antitumor efficacy was evaluated as growth inhibition which was estimated by Treated/Control ratio and shown as % inhibition.

[1] = tested on: Murine colon cancer Colon 26; test: as above; set-up: species or system mouse; conditions: Colon 26 in Balb/c mice; 30 mg/kg orally daily for 14 days; P<0.01
Description: as §1, §2

[2] = tested on: DT-R cells (pRRE3-luc-transfected v-ki-ras-transformed NIH3T3 cells); signal derived from Ras oncogene products; test: Inhibitory effect against cellular signaling derived from Ras oncogene products: luciferase reporter, dissociation of DT-R from DT-C activity (MAC); type: cell-based, mouse; conditions: minimal tested concentration at which luciferase activities of DT-C cells and DT-R cells dissociated
Method in brief: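 Value is a minimal active concentration: lowest dose where Ras-responsive reporter (DT-R) luciferase diverges from SV40-minimal-promoter control (DT-C). Both transfected v-Ki-ras NIH3T3 lines received 3-fold serial dilutions for 24 h at 37 °C in 10% FCS medium before lysis and luminometry.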

[3] = tested on: human squamous lung cancer Ma44; test: In vitro cell growth inhibition test, MTT assay; type: cell-based; conditions: MTT assay 4 days after compound addition
Method in brief: (§3)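 Panel of human carcinoma lines, including PANC-1, assessed in vitro; inhibition of cell growth quantified via MTT.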

human colon cancer HT29 = test: In vitro cell growth inhibition test, MTT assay; type: cell-based; conditions: MTT assay 4 days after compound addition
Method in brief: as §3

[4] = tested on: human squamous lung cancer RERF-RC-AI; test: In vitro cell growth inhibition test, MTT assay; type: cell-based; conditions: MTT assay 4 days after compound addition
Method in brief: as §3

[5] = tested on: DT-C cells (pGV-P-transfected v-ki-ras-transformed NIH3T3 cells); test: Luciferase activity in control DT-C cells (IC50-C): non-specific transcription-inhibitory effect or cytotoxicity; type: cell-based, mouse; conditions: tested concentration nearest to 50% inhibition in DT-C cells, index of non-specific transcription inhibition or cytotoxicity
Method in brief: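 Luciferase from an SV40 minimal promoter was read in DT-C cells (2500 cells/well) 24 h after compound addition at […] to 0.51 ng/ml in 3-fold steps. IC50-C is the tested concentration nearest 50% inhibition.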

[6] = tested on: human lung cancer RERF-LC-AI; test: Evaluation of in vivo antitumor efficacy, tumor growth inhibition; conditions: RERF-LC-AI in Balb/c nude mice; 30 mg/kg orally daily for 14 days; P<0.01
Description: as §1, §2

[7] = tested on: human pancreas cancer PANC-1; test: In vitro cell growth inhibition test, MTT assay; type: cell-based; conditions: MTT assay 4 days after compound addition
Method in brief: as §3

[8] = tested on: human lung adenocarcinoma A549; test: In vitro cell growth inhibition test, MTT assay; type: cell-based; conditions: MTT assay 4 days after compound addition
Method in brief: as §3

Structure (SMILES)	Growth inhibition (Treated/Control ratio, shown as % inhibition) (human lung cancer Ma44) [%]	Growth inhibition (Treated/Control ratio, shown as % inhibition) [1] [%]	MAC (Minimal Active Concentration) [2] [µg/mL]	IC50, Ma44 [3] [µg/mL]	IC50, HT29 (human colon cancer HT29) [µg/mL]	IC50, RERF-LC-AI [4] [µg/mL]	IC50-C [5] [µg/mL]	Growth inhibition (Treated/Control ratio, shown as % inhibition) [6] [%]	IC50 ([3]; Homo sapiens, 96 h) [µg/mL]	IC50 ([7]; Homo sapiens, PANC-1, 96 h) [µg/mL]	IC50 (human colon cancer HT29; Homo sapiens, HT-29, 96 h) [µg/mL]	IC50 ([8]; Homo sapiens, A549, 96 h) [µg/mL]	IC50 ([4]; Homo sapiens, 96 h, read-out: IC50, RERF-LC-AI) [µg/mL]	melting point [°C]	IC50 ([5]; Mus musculus, NIH3T3) [µg/mL]	IC50, PANC-1 [7] [µg/mL]	IC50, A549 [8] [µg/mL]
CCNC(=Nc1nc(C)ncc1CSc1nnc(-c2ccc(N)cc2)o1)NCC [Compound A-42]	66	70	0.0137	0.049 (≈ 0.119 µM)	0.011 (≈ 0.0267 µM)	0.0083 (≈ 0.0201 µM)	>10	74	–	–	–	–	–	–	–	–	–
CCN/C(=N\c1nc(C)ncc1CSc1nnc(-c2ccc([N+](=O)[O-])cc2)o1)SC [Compound G-1]	–	–	0.370	–	–	–	–	–	0.056 (≈ 0.126 µM)	0.051 (≈ 0.114 µM)	0.052 (≈ 0.117 µM)	0.063 (≈ 0.141 µM)	0.046 (≈ 0.103 µM)	156 to 157	> 10	–	–
CCNC(=Nc1nc(C)ncc1CSc1nnc(-c2ccc(N)nc2)o1)NCC [Compound D-6]	–	–	0.370	0.32 (≈ 0.774 µM)	0.039 (≈ 0.0943 µM)	0.037 (≈ 0.0895 µM)	>10	–	–	–	–	–	–	–	–	0.085 (≈ 0.206 µM)	0.33 (≈ 0.798 µM)
CCCCNC(=Nc1nc(C)ncc1CSc1nnc(-c2ccc([N+](=O)[O-])cc2)o1)NCCCC [Compound A-128]	–	–	0.0412	0.044 (≈ 0.0882 µM)	0.042 (≈ 0.0842 µM)	0.036 (≈ 0.0722 µM)	3.33 (≈ 6.68 µM)	–	–	–	–	–	–	–	–	0.026 (≈ 0.0521 µM)	0.047 (≈ 0.0943 µM)
CCNC(=Nc1nc(C)ncc1CSc1nnc(-c2ccc([N+](=O)[O-])cc2)o1)NCC(F)(F)F [Compound A-175]	–	–	0.0137	0.015 (≈ 0.0302 µM)	0.01 (≈ 0.0201 µM)	0.0053 (≈ 0.0107 µM)	3.33 (≈ 6.71 µM)	–	–	–	–	–	–	–	–	0.01 (≈ 0.0201 µM)	0.017 (≈ 0.0342 µM)

Reference: US6420367B1, “Pyrimidine derivatives exhibiting antitumor activity” (Shionogo & Co., Ltd., priority 1998, dated 2002)
